Experimental data as given in patent US20200008421A1, “ADJUVANTS” (SYNGENTA PARTICIPATIONS AG, priority 2016, published 2020).

How the values were obtained:
Type in all cases: in vivo
[1] = tested on: Abutilon theophrasti (ABUTH), Chenopodium album (CHEAL), Digitaria sanguinalis (DIGSA), Setaria viridis (SETVI); assay: Glasshouse herbicide efficacy of nicosulfuron with adjuvants (Example 5); settings: nicosulfuron WG, mean over 30 and 60 g/ha, three replicates, four weed species; 21 days after application; Adjuvant 2 0.2% v/v, Atplus 411F 0.5% v/v; 200 l/ha
Description: (§1) Nicosulfuron was added to the spray tank as a standard WG (water dispersible granule) formulation.
The spray tests were also carried out using nicosulfuron in conjunction with Adjuvant 2 or the commercially available tank-mix adjuvant, Atplus 411F®. […] The weed species were Abutilon theophrasti (ABUTH), Chenopodium album (CHEAL), Digitaria sanguinalis (DIGSA) and Setaria viridis (SETVI).
Each spray test was replicated three times. […] The results shown in Table 5 below are mean averages over the two rates of nicosulfuron, the three replicates and the four weed species.

[2] = tested on: Abutilon theophrasti (ABUTH), Chenopodium album (CHEAL), Digitaria sanguinalis (DIGSA), Setaria viridis (SETVI); assay: Glasshouse herbicide efficacy of nicosulfuron with adjuvants (Example 1); settings: nicosulfuron WG, mean over 30 and 60 g/ha, three replicates, four weed species; 21 days after application; adjuvants 0.2% v/v, Atplus 411F 0.5% v/v; 200 l/ha
Description: as §1
Each spray test was replicated three times. […] The results shown in Table 1 below are mean averages over the two rates of nicosulfuron, the three replicates and the four weed species.

[3] = tested on: Alopecurus myosuroides (ALOMY), Avena fatua (AVEFA), Lolium perenne (LOLPE), Setaria viridis (SETVI); assay: Glasshouse herbicide efficacy of pinoxaden with adjuvants (Example 7); settings: pinoxaden EC, mean over 7.5 and 15 g/ha, three replicates, four weed species; 21 days after application; adjuvants 0.2% v/v; 200 l/ha
Description: (§2) Pinoxaden was added to the spray tank as a standard EC (emulsifiable concentrate) formulation.
The spray tests were also carried out using pinoxaden in conjunction with Adjuvant 2 or the standard adjuvant tris(2-ethylhexyl) phosphate. […] The weed species were Alopecurus myosuroides (ALOMY), Avena fatua (AVEFA); Lolium perenne (LOLPE) and Setaria viridis (SETVI).
Each spray test was replicated three times. […] The results shown in Table 7 below are mean averages over the two rates of pinoxaden, the three replicates and the four weed species.

[4] = tested on: Alopecurus myosuroides (ALOMY), Avena fatua (AVEFA), Lolium perenne (LOLPE), Setaria viridis (SETVI); assay: Glasshouse herbicide efficacy of pinoxaden with adjuvants (Example 10); settings: pinoxaden EC, mean over 7.5 and 15 g/ha, three replicates, four weed species; 21 days after application; adjuvants 0.2% v/v; 200 l/ha
Description: The efficacy of Adjuvant 5 as an adjuvant for the herbicide pinoxaden was tested in a glasshouse against four weed species. Pinoxaden was added to the spray tank as a standard EC (emulsifiable concentrate) formulation.
The spray tests were also carried out using pinoxaden in conjunction with Adjuvant 5, Adjuvant 6 or the standard adjuvant tris(2-ethylhexyl) phosphate. […] The weed species were Alopecurus myosuroides (ALOMY), Avena fatua (AVEFA), Lolium perenne (LOLPE) and Setaria viridis (SETVI). Each spray test was replicated three times. […] The results shown in Table 10 below are mean averages over the two rates of pinoxaden, the three replicates and the four weed species.

[5] = tested on: Alopecurus myosuroides (ALOMY), Avena fatua (AVEFA), Lolium perenne (LOLPE), Setaria viridis (SETVI); assay: Glasshouse herbicide efficacy of pinoxaden with adjuvants (Example 3); settings: pinoxaden EC, mean over 7.5 and 15 g/ha, three replicates, four weed species; 21 days after application; adjuvants 0.2% v/v; 200 l/ha
Description: as §2
Each spray test was replicated three times. […] The results shown in Table 3 below are mean averages over the two rates of pinoxaden, the three replicates and the four weed species.

[6] = tested on: Polygonum convolvulus (POLCO), Brachiaria plantaginea (BRAPL), Commelina benghalensis (COMBE), Digitaria sanguinalis (DIGSA); assay: Glasshouse herbicide efficacy of mesotrione with adjuvants (Example 9); settings: mesotrione SC, mean over 30 and 60 g/ha, three replicates, four weed species; 21 days after application; adjuvants 0.2% v/v, Tween 20 0.5% v/v; 200 l/ha
Description: The efficacy of Adjuvant 5 as an adjuvant for the herbicide mesotrione was tested in a glasshouse against four weed species. Mesotrione was added to the spray tank as a standard SC (suspension concentrate) formulation.
(§3) The spray tests were also carried out using mesotrione in conjunction with Adjuvant 5, Adjuvant 6 or the well-known adjuvant Tween® 20. […] The four weed species were Polygonum convolvulus (POLCO), Brachiaria plantaginea (BRAPL), Commelina benghalensis (COMBE) and Digitaria sanguinalis (DIGSA).
Each spray test was replicated three times. […] The results shown in Table 9 below are mean averages over the two rates of mesotrione, the three replicates and the four weed species.

[7] = tested on: Polygonum convolvulus (POLCO), Brachiaria plantaginea (BRAPL), Commelina benghalensis (COMBE), Digitaria sanguinalis (DIGSA); assay: Glasshouse herbicide efficacy of mesotrione with adjuvants (Example 6); settings: mesotrione SC, mean over 30 and 60 g/ha, three replicates, four weed species; 21 days after application; Adjuvant 2 0.2% v/v, Tween 20 0.5% v/v; 200 l/ha
Description: (§4) Mesotrione was added to the spray tank as a standard SC (suspension concentrate) formulation.
as §3, with “2” for “5, Adjuvant 6”, “(DIGSA). Each spray test was replicated three times. […] The results shown in Table 6 below are mean averages over the two rates of mesotrione, the three replicates and the four weed species.” for “(DIGSA).”

[8] = tested on: Polygonum convolvulus (POLCO), Brachiaria plantaginea (BRAPL), Commelina benghalensis (COMBE), Digitaria sanguinalis (DIGSA); assay: Glasshouse herbicide efficacy of mesotrione with adjuvants (Example 2); settings: mesotrione SC, mean over 30 and 60 g/ha, three replicates, four weed species; 21 days after application; adjuvants 0.2% v/v, Tween 20 0.5% v/v; 200 l/ha
Description: as §4
The four weed species were Polygonum convolvulus (POLCO; growth stage 13-15), Brachiaria plantaginea (BRAPL; growth stage 13-21), Commelina benghalensis (COMBE; growth stage 12-13) and Digitaria sanguinalis (DIGSA; growth stage 13-14).
Each spray test was replicated three times. […] The results shown in Table 2 below are mean averages over the two rates of mesotrione, the three replicates and the four weed species.

With `COc1cc(OC)nc(NC(=O)NS(=O)(=O)c2ncccc2C(=O)N(C)C)n1` [Nicosulfuron, nicosulfuron] the “Mean across species % phytotoxicity (mean percentage kill, leaf area killed)” value [1] was 64.5% and the “Mean across species % phytotoxicity (mean percentage kill, leaf area killed)” value [2] was 34.4%.

With `CCc1cc(C)cc(CC)c1-c1c(OC(=O)C(C)(C)C)n2n(c1=O)CCOCC2` [Pinoxaden, pinoxaden] the “Mean across species % phytotoxicity (mean percentage kill, leaf area killed)” value [3] was 3.4%, the “Mean across species % phytotoxicity (mean percentage kill, leaf area killed)” value [4] was 7.5% and the “Mean across species % phytotoxicity (mean percentage kill, leaf area killed)” value [5] was 3.6%.

In the case of `CS(=O)(=O)c1ccc(C(=O)C2C(=O)CCCC2=O)c([N+](=O)[O-])c1` [Mesotrione, mesotrione], the “Mean across species % phytotoxicity (mean percentage kill, leaf area killed)” value [6] is reported as 27.5%, the “Mean across species % phytotoxicity (mean percentage kill, leaf area killed)” value [7] is reported as 17.8% and the “Mean across species % phytotoxicity (mean percentage kill, leaf area killed)” value [8] is reported as 25.6%.
